*1 amine or outer side, *2 acyl side, *3 side chain or, on linkers, in order; H or OH if unused. Where a SMILES comes first, the peptide text is derived from it. Side-chain parts run from the residue outwards. [ ]: non-standard residue; d: D form. The star is where a group is joined. X1 = O=C(O)CCCCCCCCCCCCCCCCCCC(=O)N1CCN(CC(=O)*)CC1; C20 diacid = O=C(O)CCCCCCCCCCCCCCCCCCC(=O)*; C18 diacid = O=C(O)CCCCCCCCCCCCCCCCC(=O)*; γGlu = O=C(O)[C@H](CCC(=O)[*:2])N[*:1]; AEEA = NCCOCCOCC(=O)O; Aib = CC(C)(N)C(=O)O
Legend:
human GLP-1 R = target: T1, human GLP-1 R (Homo sapiens, UniProt P43220); test: Human GLP-1 receptor (GLP-1 R) activity assay, cAMP induction (AlphaScreen) in HEK293 cells; type: cell-based; conditions: Table 3; most comprehensive data; read-out: hGLP-1-R cAMP EC50 average value
T1 construct: expressed in transfected cells
Method in brief: (§1)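 Stable HEK293 clones expressing human GIP R or GLP-1 R, seeded 1 day before; cells washed in Tyrode's buffer (10 mM HEPES, pH 7.4), stimulated, then lysed. cAMP measured by AlphaScreen bead competition (1 h, room temperature, dark). EC50 = concentration giving half-maximal cAMP elevation, from curves of absolute cAMP (nM) vs log concentration.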

human GIP R = target: T2, human GIP R (Homo sapiens, UniProt P48546); test: Human GIP receptor (GIP R) activity assay, cAMP induction (AlphaScreen) in HEK293 cells; type: cell-based; conditions: Table 3; most comprehensive data; read-out: hGIP-R cAMP EC50 average value
T2 construct: expressed in transfected cells
T2 sequence (P48546 22-466): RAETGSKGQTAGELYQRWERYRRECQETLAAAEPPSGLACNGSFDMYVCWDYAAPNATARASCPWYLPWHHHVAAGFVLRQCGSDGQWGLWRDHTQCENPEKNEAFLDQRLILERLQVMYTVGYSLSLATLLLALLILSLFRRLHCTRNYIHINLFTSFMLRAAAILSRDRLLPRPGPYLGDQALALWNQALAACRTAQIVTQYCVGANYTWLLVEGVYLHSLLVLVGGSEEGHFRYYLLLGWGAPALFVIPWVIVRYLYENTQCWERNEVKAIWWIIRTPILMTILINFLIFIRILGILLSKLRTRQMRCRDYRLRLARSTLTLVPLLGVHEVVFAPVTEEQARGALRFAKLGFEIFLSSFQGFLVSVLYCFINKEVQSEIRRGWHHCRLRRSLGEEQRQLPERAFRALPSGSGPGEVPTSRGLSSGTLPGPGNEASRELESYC
Method in brief: as §1

T1 sequence (P43220 24-463): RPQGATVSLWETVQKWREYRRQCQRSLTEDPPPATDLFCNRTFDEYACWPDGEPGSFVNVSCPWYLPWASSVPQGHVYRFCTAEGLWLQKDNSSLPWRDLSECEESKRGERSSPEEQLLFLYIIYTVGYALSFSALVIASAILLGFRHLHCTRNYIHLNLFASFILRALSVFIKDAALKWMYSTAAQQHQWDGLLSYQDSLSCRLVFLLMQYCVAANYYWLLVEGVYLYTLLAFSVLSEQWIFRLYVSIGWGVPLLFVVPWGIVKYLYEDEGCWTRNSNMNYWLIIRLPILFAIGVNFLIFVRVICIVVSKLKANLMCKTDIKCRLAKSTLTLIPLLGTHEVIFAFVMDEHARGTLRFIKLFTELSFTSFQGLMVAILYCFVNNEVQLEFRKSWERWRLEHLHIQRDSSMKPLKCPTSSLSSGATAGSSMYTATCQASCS

Row | SMILES | EC50 (human GLP-1 R) | EC50 (human GIP R)
1 | CC[C@H](C)[C@H](NC(=O)[C@H](CO)NC(=O)[C@H](Cc1ccc(O)cc1)NC(=O)[C@H](CC(=O)O)NC(=O)[C@H](CO)NC(=O)[C@@H](NC(=O)[C@H](Cc1ccccc1)NC(=O)[C@@H](NC(=O)CNC(=O)[C@H](CCC(=O)O)NC(=O)C(C)(C)NC(=O)[C@@H](N)Cc1ccc(O)cc1)[C@@H](C)O)[C@@H](C)O)C(=O)N[C@@H](C)C(=O)N[C@@H](CC(C)C)C(=O)N[C@@H](CC(=O)O)C(=O)N[C@@H](CCCCN)C(=O)N[C@@H](CCCCNC(=O)COCCOCCNC(=O)COCCOCCNC(=O)CC[C@H](NC(=O)CCCCCCCCCCCCCCCCCCC(=O)O)C(=O)O)C(=O)N[C@@H](C)C(=O)N[C@@H](CCC(N)=O)C(=O)N[C@@H](CCCNC(=N)N)C(=O)N[C@@H](C)C(=O)N[C@@H](Cc1ccccc1)C(=O)N[C@H](C(=O)N[C@@H](CCC(=O)O)C(=O)N[C@@H](Cc1c[nH]c2ccccc12)C(=O)N[C@@H](CC(C)C)C(=O)N[C@@H](CC(C)C)C(=O)N[C@@H](C)C(=O)N[C@@H](CCC(N)=O)C(=O)NCC(=O)N1CCC[C@H]1C(=O)N[C@@H](CO)C(=O)N[C@@H](CO)C(=O)NCC(=O)N[C@@H](C)C(=O)N1CCC[C@H]1C(=O)N1CCC[C@H]1C(=O)N1CCC[C@H]1C(=O)N[C@@H](CO)C(N)=O)[C@@H](C)CC [Compound 50] (H-Y[Aib]EGTFTSDYSIALDKK([AEEA-AEEA-γGlu-C20 diacid])AQRAFIEWLLAQGPSSGAPPPS-NH2) | 0.015 nM | 0.007 nM
2 | CC[C@H](C)[C@H](NC(=O)[C@H](CO)NC(=O)[C@H](Cc1ccc(O)cc1)NC(=O)[C@H](CC(=O)O)NC(=O)[C@H](CO)NC(=O)[C@@H](NC(=O)[C@H](Cc1ccccc1)NC(=O)[C@@H](NC(=O)CNC(=O)[C@H](CCC(=O)O)NC(=O)C(C)(C)NC(=O)[C@@H](N)Cc1ccc(O)cc1)[C@@H](C)O)[C@@H](C)O)C(=O)N[C@@H](C)C(=O)N[C@@H](CC(C)C)C(=O)N[C@@H](CC(=O)O)C(=O)N[C@@H](CCCCN)C(=O)N[C@@H](CCCCNC(=O)COCCOCCNC(=O)COCCOCCNC(=O)CC[C@H](NC(=O)CCCCCCCCCCCCCCCCC(=O)O)C(=O)O)C(=O)N[C@@H](C)C(=O)N[C@@H](CCC(N)=O)C(=O)N[C@@H](CCCNC(=N)N)C(=O)N[C@@H](C)C(=O)N[C@@H](Cc1ccccc1)C(=O)N[C@H](C(=O)N[C@@H](CCC(=O)O)C(=O)N[C@@H](Cc1c[nH]c2ccccc12)C(=O)N[C@@H](CC(C)C)C(=O)N[C@@H](CC(C)C)C(=O)N[C@@H](C)C(=O)N[C@@H](CCC(N)=O)C(=O)NCC(=O)N1CCC[C@H]1C(=O)N[C@@H](CO)C(=O)N[C@@H](CO)C(=O)NCC(=O)N[C@@H](C)C(=O)N1CCC[C@H]1C(=O)N1CCC[C@H]1C(=O)N1CCC[C@H]1C(=O)N[C@@H](CO)C(N)=O)C(C)C [Compound 51] (H-Y[Aib]EGTFTSDYSIALDKK([AEEA-AEEA-γGlu-C18 diacid])AQRAFVEWLLAQGPSSGAPPPS-NH2) | 0.017 nM | 0.005 nM
3 | CC[C@H](C)[C@H](NC(=O)[C@H](CO)NC(=O)[C@H](Cc1ccc(O)cc1)NC(=O)[C@H](CC(=O)O)NC(=O)[C@H](CO)NC(=O)[C@@H](NC(=O)[C@H](Cc1ccccc1)NC(=O)[C@@H](NC(=O)CNC(=O)[C@H](CCC(=O)O)NC(=O)C(C)(C)NC(=O)[C@@H](N)Cc1ccc(O)cc1)[C@@H](C)O)[C@@H](C)O)C(=O)N[C@@H](C)C(=O)N[C@@H](CC(C)C)C(=O)N[C@@H](CC(=O)O)C(=O)N[C@@H](CCCCN)C(=O)N[C@@H](CCCCNC(=O)COCCOCCNC(=O)COCCOCCNC(=O)CN1CCN(C(=O)CCCCCCCCCCCCCCCCCCC(=O)O)CC1)C(=O)N[C@@H](C)C(=O)N[C@@H](CCC(N)=O)C(=O)N[C@@H](CCCNC(=N)N)C(=O)N[C@@H](C)C(=O)N[C@@H](Cc1ccccc1)C(=O)N[C@H](C(=O)N[C@@H](CCC(=O)O)C(=O)N[C@@H](Cc1c[nH]c2ccccc12)C(=O)N[C@@H](CC(C)C)C(=O)N[C@@H](CC(C)C)C(=O)N[C@@H](C)C(=O)N[C@@H](CCC(N)=O)C(=O)NCC(=O)N1CCC[C@H]1C(=O)N[C@@H](CO)C(=O)N[C@@H](CO)C(=O)NCC(=O)N[C@@H](C)C(=O)N1CCC[C@H]1C(=O)N1CCC[C@H]1C(=O)N1CCC[C@H]1C(=O)N[C@@H](CO)C(N)=O)C(C)C [Compound 52] (H-Y[Aib]EGTFTSDYSIALDKK([AEEA-AEEA-X1])AQRAFVEWLLAQGPSSGAPPPS-NH2) | 0.012 nM | 0.01 nM
4 | CC[C@H](C)[C@H](NC(=O)[C@H](CO)NC(=O)[C@H](Cc1ccc(O)cc1)NC(=O)[C@H](CC(=O)O)NC(=O)[C@H](CO)NC(=O)[C@@H](NC(=O)[C@H](Cc1ccccc1)NC(=O)[C@@H](NC(=O)CNC(=O)[C@H](CCC(=O)O)NC(=O)C(C)(C)NC(=O)[C@@H](N)Cc1ccc(O)cc1)[C@@H](C)O)[C@@H](C)O)C(=O)N[C@@H](C)C(=O)N[C@@H](CC(C)C)C(=O)N[C@@H](CC(=O)O)C(=O)N[C@@H](CCCCN)C(=O)N[C@@H](CCCCNC(=O)COCCOCCNC(=O)COCCOCCNC(=O)CN1CCN(C(=O)CCCCCCCCCCCCCCCCCCC(=O)O)CC1)C(=O)N[C@@H](C)C(=O)N[C@@H](CCC(N)=O)C(=O)N[C@@H](CCCCN)C(=O)N[C@@H](CCC(=O)O)C(=O)N[C@@H](Cc1ccccc1)C(=O)N[C@H](C(=O)N[C@@H](CCC(=O)O)C(=O)N[C@@H](Cc1c[nH]c2ccccc12)C(=O)N[C@@H](CC(C)C)C(=O)N[C@@H](CC(C)C)C(=O)N[C@@H](C)C(=O)N[C@@H](C)C(=O)NCC(=O)N1CCC[C@H]1C(=O)N[C@@H](CO)C(=O)N[C@@H](CO)C(=O)NCC(=O)N[C@@H](C)C(=O)N1CCC[C@H]1C(=O)N1CCC[C@H]1C(=O)N1CCC[C@H]1C(=O)N[C@@H](CO)C(N)=O)C(C)C [Compound 53] (H-Y[Aib]EGTFTSDYSIALDKK([AEEA-AEEA-X1])AQKEFVEWLLAAGPSSGAPPPS-NH2) | 0.014 nM | 0.006 nM
5 | CC[C@H](C)[C@H](NC(=O)[C@H](CO)NC(=O)[C@H](Cc1ccc(O)cc1)NC(=O)[C@H](CC(=O)O)NC(=O)[C@H](CO)NC(=O)[C@@H](NC(=O)[C@H](Cc1ccccc1)NC(=O)[C@@H](NC(=O)CNC(=O)[C@H](CCC(=O)O)NC(=O)C(C)(C)NC(=O)[C@@H](N)Cc1ccc(O)cc1)[C@@H](C)O)[C@@H](C)O)C(=O)N[C@@H](Cc1ccc(O)cc1)C(=O)N[C@@H](CC(C)C)C(=O)N[C@@H](CC(=O)O)C(=O)N[C@@H](CCCCN)C(=O)N[C@@H](CCCCNC(=O)COCCOCCNC(=O)COCCOCCNC(=O)CC[C@H](NC(=O)CCCCCCCCCCCCCCCCCCC(=O)O)C(=O)O)C(=O)N[C@@H](C)C(=O)N[C@@H](CCC(N)=O)C(=O)N[C@@H](CCCNC(=N)N)C(=O)N[C@@H](C)C(=O)N[C@@H](Cc1ccccc1)C(=O)N[C@H](C(=O)N[C@@H](CCC(=O)O)C(=O)N[C@@H](Cc1c[nH]c2ccccc12)C(=O)N[C@@H](CC(C)C)C(=O)N[C@@H](CC(C)C)C(=O)N[C@@H](C)C(=O)N[C@@H](CCC(=O)O)C(=O)NCC(=O)N1CCC[C@H]1C(=O)N[C@@H](CO)C(=O)N[C@@H](CO)C(=O)NCC(=O)N[C@@H](C)C(=O)N1CCC[C@H]1C(=O)N1CCC[C@H]1C(=O)N1CCC[C@H]1C(=O)N[C@@H](CO)C(N)=O)C(C)C [Compound 54] (H-Y[Aib]EGTFTSDYSIYLDKK([AEEA-AEEA-γGlu-C20 diacid])AQRAFVEWLLAEGPSSGAPPPS-NH2) | 0.012 nM | 0.016 nM

From patent US10093713B2, “GIP-GLP-1 dual agonist compounds and methods” (priority 2013, dated 2018)
